Measured values reported in US20250195490A1, “ALPHA-METHYLENE AND AMINOMETHYL LACTONES AND LACTAMS FOR TREATMENT OF CLOSTRIDIOIDES DIFFICILE INFECTION (CDI)” (Purdue Research Foundation, priority 2022, published 2025).
≈ marks a conversion by molar mass, not a printed value. Where two headings read alike, the source gives them in different places.

Columns and labels:
[1] = tested on: MRSA (USA300); test: microbe, parasite or virus in culture; assay type: cell-based, Staphylococcus aureus; details: for MIC MRSA (USA300): aerobic, 37° C., at least 18 hours
Description: (§1) Method: The minimum inhibitory concentration (MIC) of the compounds and control drugs, linezolid (antibiotic), vancomycin (antibiotic), 5-fluorocytosine (5-FC, antifungal drug), and fluconazole (antifungal drug) was determined using the broth microdilution method according to the guidelines outlined by the Clinical and Laboratory Standards Institute (CLSI) against clinically relevant bacterial (methicillin-resistant Staphylococcus aureus (MRSA), vancomycin-resistant Enterococcus faecalis (VRE), vancomycin-resistant Enterococcus faecium (VRE), Clostridioides difficile and Escherichia coli) and fungal (Candida albicans) strains. A solution equivalent to 0.5 McFarland standard was prepared from each strain and diluted in cation-adjusted Mueller-Hinton broth (for S. aureus and E. coli), tryptone soy broth (for E. faecalis), or brain heart infusion broth (for E. faecium) to achieve a bacterial inoculum of about 5×10^5 CFU/mL. C. difficile strains were cultured in brain heart infusion broth supplemented with hemin and vitamin K. C. albicans was diluted in RPMI medium supplemented with 3-(N-morpholino) propanesulfonic acid to achieve a fungal concentration of about 1.5×10^3 CFU/mL. Compounds and control drugs were added in the first row of the 96-well plates and diluted with media containing bacteria (to achieve a concentration gradient ranging from 128 to 1 μg/mL). For MRSA, VRE, and E. coli strains, plates were then incubated aerobically at 37° C. for at least 18 hours. C. albicans was incubated aerobically at 37° C. for 24 hours. Plates containing C. difficile were incubated anaerobically at […] for 48 hours.

[2] = tested on: L. reuteri; test: MIC against human normal gut microbiota: L. reuteri; assay type: cell-based, Lactobacillus reuteri
Method in brief: (§2)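 Visible-growth MICs against commensal Bacteroides and Lactobacillus species: colonies from 48 h, 37 °C plates (BHIS, anaerobic; or MRS, 5% CO2) are brought to 0.5 McFarland in PBS. The suspensions are diluted in the corresponding broth to approximately 5×10^5 CFU/mL and incubated with compound for 48 h.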

[3] = tested on: L. casei; test: MIC against human normal gut microbiota: L. casei; assay type: cell-based, Lactobacillus casei
Method in brief: as §2

[4] = tested on: clinically important Clostridioides difficile strains; test: MIC against clinically important Clostridioides difficile strains; assay type: cell-based
Method in brief: (§3)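 Broth microdilution in brain heart infusion broth with hemin and vitamin K, inoculum from 0.5 McFarland suspension. Compounds serially diluted from 128 to 1 μg/mL. Plates incubated anaerobically for 48 hours.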

[5] = tested on: hypervirulent Clostridioides difficile strains; test: MIC against hypervirulent Clostridioides difficile strains; assay type: cell-based
Method in brief: as §3

[6] = tested on: L. crispatus; test: MIC against human normal gut microbiota: L. crispatus; assay type: cell-based, Lactobacillus crispatus
Method in brief: as §2

[7] = tested on: Bi. breve; test: MIC against human normal gut microbiota: Bifidobacterium breve; assay type: cell-based
Method in brief: (§4)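 Growth inhibition was scored by eye after 48 h incubation of roughly 5×10^5 CFU/mL of each gut commensal with serial compound dilutions. Anaerobes were grown in BHIS medium, while lactobacilli were grown in MRS medium.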

[8] = tested on: Clostridioides difficile; test: MIC by broth microdilution against Clostridioides difficile (Table 1); assay type: cell-based; details: for MIC Clostridioides difficile: anaerobic, 48 hours, strain BAA-1870
[9] = tested on: L. gasseri; test: MIC against human normal gut microbiota: L. gasseri; assay type: cell-based, Lactobacillus gasseri
Method in brief: as §2

[10] = tested on: Bi. longum; test: MIC against human normal gut microbiota: Bifidobacterium longum; assay type: cell-based
Method in brief: as §4

[11] = tested on: Ba. dorsei; test: MIC against human normal gut microbiota: Bacteroides dorsei; assay type: cell-based
Method in brief: as §2

[12] = tested on: C. albicans; test: Broth microdilution against Candida albicans; assay type: cell-based; details: gradient 128 to 1 μg/mL, 24 hours
Description: as §1

[13] = tested on: Ba. fragilis; test: MIC against human normal gut microbiota: Bacteroides fragilis; assay type: cell-based
Method in brief: as §2

SMILES: COc1cc(C2OC(=O)C(CN3CCCCC3)C2c2ccccc2Br)ccc1OCc1ccccc1 (racemic) [Compound 27]
- MIC MRSA (USA300) [1]: >128 µg/mL
- MIC ([2]; L. reuteri HM 120): >128 µg/mL
- MIC ([3]; L. casei HM 334): >128 µg/mL
- MIC ([4]; CD strain 16): 1 µg/mL (≈ 1.82 µM)
- MIC ([4]; CD strain 18): 2 µg/mL (≈ 3.63 µM)
- MIC ([4]; CD strain 19): 1 µg/mL (≈ 1.82 µM)
- MIC ([4]; CD strain 1801): 1 µg/mL (≈ 1.82 µM)
- MIC ([4]; CD strain 43255): 1 µg/mL (≈ 1.82 µM)
- MIC ([4]; CD strain P6): 2 µg/mL (≈ 3.63 µM)
- MIC ([4]; CD strain P7): 1 µg/mL (≈ 1.82 µM)
- MIC ([4]; CD strain P13): 1 µg/mL (≈ 1.82 µM)
- MIC ([4]; CD strain P19): 2 µg/mL (≈ 3.63 µM)
- MIC ([5]; CD strain 81): 2 µg/mL (≈ 3.63 µM)
- MIC ([5]; CD strain 82): 2 µg/mL (≈ 3.63 µM)
- MIC ([5]; CD strain 83): 2 µg/mL (≈ 3.63 µM)
- MIC ([5]; CD strain 84): 4 µg/mL (≈ 7.27 µM)
- MIC ([5]; CD strain 85): 2 µg/mL (≈ 3.63 µM)
- MIC ([5]; CD strain 86): 2 µg/mL (≈ 3.63 µM)
- MIC ([5]; CD strain 87): 2 µg/mL (≈ 3.63 µM)
- MIC ([5]; CD strain 90): 1 µg/mL (≈ 1.82 µM)
- MIC ([5]; CD strain 49279): 2 µg/mL (≈ 3.63 µM)
- MIC ([5]; CD strain 49287): 1 µg/mL (≈ 1.82 µM)
- MIC ([5]; CD strain 49291): 1 µg/mL (≈ 1.82 µM)
- MIC ([6]; L. crispatus HM 375): >128 µg/mL
- MIC ([6]; L. crispatus HM 421): >128 µg/mL
- MIC ([7]; Bi. breve HM 856): >128 µg/mL
- MIC Clostridioides difficile [8]: 1 µg/mL (≈ 1.82 µM)
- MIC ([9]; L. gasseri HM 407): >128 µg/mL
- MIC ([10]; Bi. longum HM 848): >128 µg/mL
- MIC ([11]; Ba. dorsei HM 29): >128 µg/mL
- MIC ([11]; Ba. dorsei HM 717): >128 µg/mL
- activity against C. albicans [12]: inactive
- MIC ([13]; Ba. fragilis HM 709): >128 µg/mL
- MIC ([13]; Ba. fragilis HM 710): >128 µg/mL
- MIC ([13]; Ba. fragilis HM 711): >128 µg/mL
- MIC ([13]; Ba. fragilis HM 714): >128 µg/mL

SMILES: CN[C@H](CC(C)C)C(=O)N[C@H]1C(=O)N[C@@H](CC(N)=O)C(=O)N[C@H]2C(=O)N[C@H]3C(=O)N[C@H](C(=O)N[C@H](C(=O)O)c4cc(O)cc(O)c4-c4cc3ccc4O)[C@H](O)c3ccc(c(Cl)c3)Oc3cc2cc(c3O[C@@H]2O[C@H](CO)[C@@H](O)[C@H](O)[C@H]2O[C@H]2C[C@](C)(N)[C@H](O)[C@H](C)O2)Oc2ccc(cc2Cl)[C@H]1O [Vancomycin, reference compound]
- MIC ([1]; Staphylococcus aureus, 18 h, read-out: MIC MRSA (USA300)): 1 µg/mL (≈ 0.69 µM)
- MIC ([2]; Limosilactobacillus reuteri): > 128 µg/mL
- MIC ([3]; Lacticaseibacillus casei): > 128 µg/mL
- MIC ([4]; Clostridioides difficile, CD strain 16, read-out: MIC): 1 µg/mL (≈ 0.69 µM)
- MIC ([4]; Clostridioides difficile, CD strain 18, read-out: MIC): 0.5 µg/mL (≈ 0.345 µM)
- MIC ([4]; Clostridioides difficile, CD strain 19, read-out: MIC): 1 µg/mL (≈ 0.69 µM)
- MIC ([4]; Clostridioides difficile, CD strain 1801, read-out: MIC): 1 µg/mL (≈ 0.69 µM)
- MIC ([4]; Clostridioides difficile, CD strain 43255, read-out: MIC): 1 µg/mL (≈ 0.69 µM)
- MIC ([4]; Clostridioides difficile, CD strain P6, read-out: MIC): 1 µg/mL (≈ 0.69 µM)
- MIC ([4]; Clostridioides difficile, CD strain P7, read-out: MIC): 1 µg/mL (≈ 0.69 µM)
- MIC ([4]; Clostridioides difficile, CD strain P13, read-out: MIC): 1 µg/mL (≈ 0.69 µM)
- MIC ([4]; Clostridioides difficile, CD strain P19, read-out: MIC): 1 µg/mL (≈ 0.69 µM)
- MIC ([5]; Clostridioides difficile, CD strain 81): 0.25 µg/mL (≈ 0.173 µM)
- MIC ([5]; Clostridioides difficile, CD strain 82): 0.5 µg/mL (≈ 0.345 µM)
- MIC ([5]; Clostridioides difficile, CD strain 83): 0.5 µg/mL (≈ 0.345 µM)
- MIC ([5]; Clostridioides difficile, CD strain 84): 0.25 µg/mL (≈ 0.173 µM)
- MIC ([5]; Clostridioides difficile, CD strain 85): 2 µg/mL (≈ 1.38 µM)
- MIC ([5]; Clostridioides difficile, CD strain 86): 0.5 µg/mL (≈ 0.345 µM)
- MIC ([5]; Clostridioides difficile, CD strain 87): 0.5 µg/mL (≈ 0.345 µM)
- MIC ([5]; Clostridioides difficile, CD strain 90): 1 µg/mL (≈ 0.69 µM)
- MIC ([5]; Clostridioides difficile, CD strain 49279): 1 µg/mL (≈ 0.69 µM)
- MIC ([5]; Clostridioides difficile, CD strain 49287): 0.25 µg/mL (≈ 0.173 µM)
- MIC ([5]; Clostridioides difficile, CD strain 49291): 0.25 µg/mL (≈ 0.173 µM)
- MIC ([6]; L. crispatus HM 375): ≤1 µg/mL
- MIC ([6]; Lactobacillus crispatus): ≤ 1 µg/mL
- MIC ([7]; Bifidobacterium breve): ≤ 1 µg/mL
- MIC ([8]; Clostridioides difficile, BAA1870, 48 h, read-out: MIC Clostridioides difficile): 1 µg/mL (≈ 0.69 µM)
- MIC ([9]; Lactobacillus gasseri): > 128 µg/mL
- MIC ([10]; Bifidobacterium longum): 64 µg/mL (≈ 44.2 µM)
- MIC ([11]; Bacteroides, Ba. dorsei HM 717): 8 µg/mL (≈ 5.52 µM)
- MIC ([11]; Bacteroides, Ba. dorsei HM 29): 128 µg/mL (≈ 88.3 µM)
- MIC ([13]; Bacteroides fragilis, Ba. fragilis HM 710): 16 µg/mL (≈ 11 µM)
- MIC ([13]; Bacteroides fragilis, Ba. fragilis HM 711): 16 µg/mL (≈ 11 µM)
- MIC ([13]; Bacteroides fragilis, Ba. fragilis HM 714): 16 µg/mL (≈ 11 µM)
- MIC ([13]; Bacteroides fragilis, Ba. fragilis HM 709): 64 µg/mL (≈ 44.2 µM)

SMILES: C=C1C(=O)O[C@H](c2ccccc2O)[C@@H]1c1cccc(C#N)c1 (racemic) [Compound 50]
- MIC MRSA (USA300) [1]: >128 µg/mL
- MIC ([2]; L. reuteri HM 120): >128 µg/mL
- MIC ([3]; L. casei HM 334): >128 µg/mL
- MIC ([4]; CD strain 16): 128 µg/mL (≈ 439 µM)
- MIC ([4]; CD strain 18): 32 µg/mL (≈ 110 µM)
- MIC ([4]; CD strain 19): 128 µg/mL (≈ 439 µM)
- MIC ([4]; CD strain 1801): 128 µg/mL (≈ 439 µM)
- MIC ([4]; CD strain 43255): 16 µg/mL (≈ 54.9 µM)
- MIC ([4]; CD strain P6): 128 µg/mL (≈ 439 µM)
- MIC ([4]; CD strain P7): 128 µg/mL (≈ 439 µM)
- MIC ([4]; CD strain P13): 32 µg/mL (≈ 110 µM)
- MIC ([4]; CD strain P19): 32 µg/mL (≈ 110 µM)
- MIC ([5]; CD strain 81): >128 µg/mL
- MIC ([5]; CD strain 82): 64 µg/mL (≈ 220 µM)
- MIC ([5]; CD strain 83): 128 µg/mL (≈ 439 µM)
- MIC ([5]; CD strain 84): >128 µg/mL
- MIC ([5]; CD strain 85): >128 µg/mL
- MIC ([5]; CD strain 86): 128 µg/mL (≈ 439 µM)
- MIC ([5]; CD strain 87): 128 µg/mL (≈ 439 µM)
- MIC ([5]; CD strain 90): 128 µg/mL (≈ 439 µM)
- MIC ([5]; CD strain 49279): >128 µg/mL
- MIC ([5]; CD strain 49287): 128 µg/mL (≈ 439 µM)
- MIC ([5]; CD strain 49291): 64 µg/mL (≈ 220 µM)
- MIC ([6]; L. crispatus HM 375): >128 µg/mL
- MIC ([6]; L. crispatus HM 421): >128 µg/mL
- MIC ([7]; Bi. breve HM 856): >128 µg/mL
- MIC Clostridioides difficile [8]: 8 µg/mL (≈ 27.5 µM)
- MIC ([9]; L. gasseri HM 407): >128 µg/mL
- MIC ([10]; Bi. longum HM 848): >128 µg/mL
- MIC ([11]; Ba. dorsei HM 29): >128 µg/mL
- MIC ([11]; Ba. dorsei HM 717): >128 µg/mL
- activity against C. albicans [12]: inactive
- MIC ([13]; Ba. fragilis HM 709): >128 µg/mL
- MIC ([13]; Ba. fragilis HM 710): >128 µg/mL
- MIC ([13]; Ba. fragilis HM 711): >128 µg/mL
- MIC ([13]; Ba. fragilis HM 714): >128 µg/mL
